ChEMBL document CHEMBL1124561, “Synthesis of acyclonucleoside hydroxamic acids as inhibitors of ribonucleotide reductase” (J Med Chem, 1989)
Several values for one entry are separate records, joined by “and”; a condition that tells them apart may be missing. Identical values can stand only once.

Tests used:
HeLa [1] = assay: Percent inhibition of growth of human cervical carcinoma (HeLa) cells in culture at 5 micro g/mL of the compound; format: functional
[2] = Inhibition against cytidine diphosphate reductase activity in calf thymus; format: tissue-based, Bos taurus
HeLa [3] = assay: Percent inhibition of growth of human cervical carcinoma (HeLa) cells in culture at 10 micro g/mL of the compound; format: functional
HeLa [4] = assay: Percent inhibition of growth of human cervical carcinoma (HeLa) cells in culture at 25 micro g/mL of the compound; format: functional
HeLa [5] = assay: Percent inhibition of growth of human cervical carcinoma (HeLa) cells in culture at 50 micro g/mL of the compound; format: functional
HeLa [6] = assay: Percent inhibition of growth of human cervical carcinoma (HeLa) cells in culture at 2.5 micro g/mL of the compound; format: functional
HeLa [7] = assay: Percent inhibition of growth of human cervical carcinoma (HeLa) cells in culture at 200 micro g/mL of the compound; format: functional
HeLa [8] = assay: Percent inhibition of growth of human cervical carcinoma (HeLa) cells in culture at 100 micro g/mL of the compound; format: functional
HeLa [9] = assay: Percent inhibition of growth of human cervical carcinoma (HeLa) cells in culture at 1 micro g/mL of the compound; format: functional
HeLa [10] = assay: Percent inhibition of growth of human cervical carcinoma (HeLa) cells in culture at 0.1 micro g/mL of the compound; format: functional

Row | Compound | Inhibition (HeLa [1]) | IC50 [2] | Inhibition (HeLa [3]) | Inhibition (HeLa [4]) | Inhibition (HeLa [5]) | Inhibition (HeLa [6]) | Inhibition (HeLa [7]) | Inhibition (HeLa [8]) | Inhibition (HeLa [9]) | Inhibition (HeLa [10])
1 | O=C(NO)C(OCCO)n1cc(F)c(=O)[nH]c1=O (centres undefined) | 40% | 1400 µM | 66% | 75% | 80% | 16.5% | – | – | – | –
2 | O=C(NO)C(OCCO)n1ccc(=O)[nH]c1=O (centres undefined) | – | 2200 µM | – | 19% | 13% | – | 97% | 47% | – | –
3 | Nc1ccn(C(OCCO)C(=O)NO)c(=O)n1 (centres undefined) | – | 4900 µM | – | – | – | – | 0% | – | – | –
4 | O=c1[nH]cc(F)c(=O)[nH]1 [FLUOROURACIL] | 34.3% | – | 63.5% and 70% | 77% | 90% | – | – | – | 55% | 19%
5 | NC(=O)NO [HYDROXYUREA] | 34.3% | 500 µM | 63.5% | 77% | 90% | – | – | – | – | –
